PubChem BioAssay (NCI)
“And” between values parts separate entries of the source, which are not always exact repeats. Equal entries are not always repeated.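 Where inhibition never reached the appropriate level, the endpoint shown equals the highest concentration tested. Otherwise, values were interpolated linearly from a five-concentration, 48-hour dose response in 96-well plates. Abbreviation: GI50, concentration required for 50% inhibition of growth. Definition used: TGI = concentration required for complete inhibition of growth.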

What was measured:
Assay in all cases: NCI tumour cell line growth inhibition, 48 h
[1] = test system: MCF7 breast
[2] = test system: OVCAR-3 ovarian
[3] = test system: U251 CNS
[4] = test system: A549 NSCLC
[5] = test system: RXF 393 renal
[6] = test system: SK-MEL-28 melanoma
[7] = test system: MALME-3M melanoma
[8] = test system: ACHN renal
[9] = test system: SF-539 CNS
[10] = test system: CAKI-1 renal

For COc1ccc(-n2nc(C)c3c2N(C)C2(C)C[C@@H]4C3(C)[C@@H]3CC4(C2)N(C)c2c(c(C)nn2-c2ccc(OC)cc2)[C@H]3C)cc1 (stereo partly specified), the GI50 [1] was 4.02 µM, the TGI [1] was > 100 µM and the GI50 [2] was 7.14 µM. The TGI [2] was > 100 µM, the GI50 [3] was 3.94 µM and the TGI [3] was 22.5 µM. For the same compound, the GI50 [4] was 3.29 µM, the TGI [4] was > 100 µM and the GI50 [5] was 2.92 µM. For the same compound, the TGI [5] was 13.3 µM, the GI50 [6] was 15.2 µM and the TGI [6] was > 100 µM. For the same compound, the GI50 [7] was 6.34 µM, the TGI [7] was > 100 µM and the GI50 [8] was 6.13 µM. The TGI [8] was > 100 µM, the GI50 [9] was 6.49 µM and the TGI [9] was > 100 µM.
With O=C1c2ccccc2C(=O)c2c1ccc1c3ccccc3n(Cc3ccccc3)c21 the TGI [2] was > 100 µM, the TGI [4] was > 100 µM and the TGI [7] was > 100 µM. For the same compound, the TGI [8] was > 100 µM, the TGI [10] was > 100 µM and the TGI [9] was > 100 µM.
With O=C(CC(C(=O)O)N1CCOCC1)c1ccccc1 (stereo unspecified) the TGI [1] was 31.2 µM, the TGI [2] was 35.7 µM and the TGI [3] was 30.9 µM. The TGI [4] was > 100 µM, the TGI [5] was 34.3 µM and the TGI [6] was 36.6 µM. For the same compound, the TGI [7] was 34 µM, the TGI [8] was 30.7 µM and the TGI [9] was 45.7 µM.
O=C(OCc1nc2ccc(Br)cc2c(=O)n1-c1ccccc1)c1ccccc1O was tested, and the TGI [2] was > 100 µM, the TGI [3] was > 100 µM and the TGI [4] was > 100 µM. The TGI [5] was > 100 µM, the TGI [6] was > 100 µM and the TGI [7] was > 100 µM. The TGI [8] was > 100 µM, the TGI [10] was > 100 µM and the TGI [9] was > 100 µM.
With Cc1[nH]c(=O)nc(N/N=C/c2ccc(O)cc2)c1C(=O)Nc1ccc(Cl)cc1 the TGI [2] was > 100 µM, the TGI [3] was > 100 µM and the TGI [4] was > 100 µM. For the same compound, the TGI [6] was > 100 µM, the TGI [7] was > 100 µM and the TGI [8] was > 100 µM. The TGI [10] was > 100 µM and the TGI [9] was > 100 µM.
COc1ccccc1NC(=O)C(=O)C1C(=O)Nc2ccccc2S1=O (stereo unspecified) was tested, and the TGI [2] was > 100 µM, the TGI [3] was > 100 µM and the TGI [4] was > 100 µM. For the same compound, the TGI [5] was > 100 µM, the TGI [6] was > 100 µM and the TGI [7] was > 100 µM. For the same compound, the TGI [8] was > 100 µM, the TGI [10] was > 100 µM and the TGI [9] was > 100 µM.
With COC(=O)C1CCC(=NC2c3ccccc3-c3ccccc32)N1 (stereo unspecified) the TGI [2] was > 100 µM, the TGI [3] was > 100 µM and the TGI [4] was > 100 µM. For the same compound, the TGI [6] was > 100 µM, the TGI [7] was > 100 µM and the TGI [8] was > 100 µM. The TGI [10] was > 100 µM.
In the case of COc1cc2c(c(OC)c1OC)-c1ccc(SC)c(=O)cc1[C@@H](NC(=O)c1ccc(C#N)cc1)CC2, the TGI [2] was < 0.0108 µM, the TGI [3] was < 0.0316 µM and the TGI [4] was > 100 µM. For the same compound, the TGI [6] was > 100 µM, the TGI [7] was 96.9 µM and the TGI [8] was > 100 µM. For the same compound, the TGI [9] was < 0.01 µM.
With O=c1[nH]c2cc(O)ccc2n2cc3c(F)cccc3c12 the GI50 [1] was 0.936 µM, the TGI [1] was > 100 µM and the GI50 [2] was 5.77 µM. For the same compound, the TGI [2] was > 100 µM, the GI50 [3] was 2.49 µM and the TGI [3] was > 100 µM. The GI50 [4] was 1.31 µM, the TGI [4] was > 100 µM and the GI50 [5] was 0.969 µM. The TGI [5] was > 100 µM, the GI50 [7] was 3.96 µM and the TGI [7] was > 100 µM. The GI50 [8] was 2.04 µM, the TGI [8] was > 100 µM and the GI50 [10] was 0.903 µM. The TGI [10] was > 100 µM, the GI50 [9] was 1.3 µM and the TGI [9] was > 100 µM.
CC[C@@]1(O)C(=O)OCc2c1cc1n(c2=O)Cc2cc3c(NC(C)=O)c(O)ccc3nc2-1 showed a GI50 [2] of 9.7 µM, a TGI [2] of 41.1 µM and a GI50 [3] of 0.252 µM. The TGI [3] was 4.46 µM, the GI50 [4] was 1.68 µM and the TGI [4] was > 100 µM. For the same compound, the GI50 [5] was 2.34 µM, the TGI [5] was 20.2 µM and the GI50 [6] was > 25.9 µM. The TGI [6] was > 100 µM, the GI50 [7] was 4.83 µM and the TGI [7] was 65.5 µM. For the same compound, the GI50 [8] was 0.389 µM, the TGI [8] was 2.85 µM and the GI50 [10] was 0.468 µM. For the same compound, the TGI [10] was 13.7 µM, the GI50 [9] was 0.388 µM and the TGI [9] was 1.96 µM.
For CCC1NCC(=O)c2c1[nH]c1ccccc21 (stereo unspecified), the TGI [2] was > 100 µM, the TGI [3] was > 100 µM and the TGI [4] was > 100 µM. The TGI [6] was > 100 µM, the TGI [7] was > 100 µM and the TGI [8] was > 100 µM. For the same compound, the TGI [10] was > 100 µM and the TGI [9] was > 100 µM.
For CCCCCCCCCCCCCCCC(=O)N[C@H]1CCc2cc(OC)c(OC)c(OC)c2-c2ccc(SC)c(=O)cc21, the GI50 [2] was 0.53 µM, the TGI [2] was 0.642 µM and 3.01 µM and the GI50 [3] was 2.64 µM. The TGI [3] was 8.6 µM and 9.32 µM, the GI50 [4] was 3.63 µM and the TGI [4] was 13.1 µM and 14.4 µM. The TGI [5] was 14.8 µM, the TGI [6] was 24.3 µM and 17.9 µM and the GI50 [7] was 0.345 µM. For the same compound, the TGI [7] was 16.3 µM and 1.67 µM, the GI50 [8] was 3.88 µM and the TGI [8] was 22.4 µM and 19.7 µM. The GI50 [10] was 6.7 µM, the TGI [10] was 80 µM and 21.8 µM and the GI50 [9] was 1.24 µM. The TGI [9] was 2.08 µM and 3.64 µM.
Work on CCCCCCCCC(=O)NCCCNCCCNC(=O)CCCCCCCC yielded a TGI [2] of 30.5 µM, a TGI [3] of 8.92 µM and a TGI [4] of 29 µM. For the same compound, the TGI [5] was 21.7 µM, the TGI [6] was 25.6 µM and the TGI [7] was 26.6 µM. For the same compound, the TGI [8] was 16.1 µM, the TGI [10] was 27.7 µM and the TGI [9] was 29.9 µM.
In the case of C=C(CC1(CC(=C)c2ccc(C(=O)O)cc2)C(=O)N(C)C(=O)N(C)C1=O)c1ccc(C(=O)O)cc1, the GI50 [1] was 73.9 µM, the TGI [1] was > 100 µM and the GI50 [2] was 96.6 µM. For the same compound, the TGI [2] was > 100 µM, the GI50 [3] was 54.2 µM and the TGI [3] was > 100 µM. The GI50 [4] was > 100 µM, the TGI [4] was > 100 µM and the GI50 [5] was > 100 µM. The TGI [5] was > 100 µM, the GI50 [6] was > 100 µM and the TGI [6] was > 100 µM. The GI50 [8] was > 100 µM, the TGI [8] was > 100 µM and the GI50 [10] was 60.3 µM. The TGI [10] was > 100 µM, the GI50 [9] was > 100 µM and the TGI [9] was > 100 µM.
With Clc1ccccc1C1=NN(c2ccccc2)C2c3cc(Br)ccc3OCC12 (stereo unspecified) the TGI [2] was > 100 µM, the TGI [3] was > 100 µM and the TGI [4] was > 100 µM. The TGI [5] was > 100 µM, the TGI [6] was > 100 µM and the TGI [7] was > 100 µM. For the same compound, the TGI [8] was > 100 µM and the TGI [9] was > 100 µM.
For O=c1[nH]c(-c2ccccn2)nc2sc3c(c12)CCCCCC3, the GI50 [1] was 2.47 µM, the TGI [1] was > 100 µM and the GI50 [2] was 8.51 µM. The TGI [2] was > 100 µM, the GI50 [3] was 2.16 µM and the TGI [3] was > 100 µM. The GI50 [4] was 2.57 µM, the TGI [4] was > 100 µM and the GI50 [5] was 7.42 µM. The TGI [5] was > 100 µM, the GI50 [6] was 6.01 µM and the TGI [6] was > 100 µM. For the same compound, the GI50 [8] was 5.19 µM, the TGI [8] was > 100 µM and the GI50 [10] was 3.29 µM. The TGI [10] was > 100 µM, the GI50 [9] was 7.84 µM and the TGI [9] was > 100 µM.
CC(=O)N[C@@H]1CCC[C@H](C(=O)Nc2cc(-c3cnn4c3CC(C)(C)C4)c(Cl)cn2)C1 was tested, and the GI50 [1] was < 0.01 µM, the TGI [1] was 40.6 µM and the GI50 [3] was < 0.01 µM. The TGI [3] was > 100 µM, the GI50 [4] was < 0.0108 µM and the TGI [4] was > 100 µM. For the same compound, the GI50 [5] was < 0.01 µM, the TGI [5] was < 0.01 µM and the GI50 [6] was < 0.0133 µM. The TGI [6] was 0.342 µM, the GI50 [7] was 0.0216 µM and the TGI [7] was 0.075 µM. The GI50 [8] was < 0.015 µM, the TGI [8] was > 100 µM and the GI50 [10] was < 0.01 µM. The TGI [10] was > 100 µM, the GI50 [9] was < 0.01 µM and the TGI [9] was 0.0187 µM.
N#CC(=C=[N-])[n+]1ccc(Cl)cc1 was tested, and the TGI [2] was 31.5 µM, the TGI [3] was 29.7 µM and the TGI [4] was > 100 µM. The TGI [5] was 31.5 µM, the TGI [7] was 30.6 µM and the TGI [10] was 10.9 µM. For the same compound, the TGI [9] was 43.2 µM.
